Assay results published in patent publication US12576075B2, “Combination therapies for treating cancer” (Institute For Cancer Research, priority 2018, dated 2026).
pEC50: −log10 of the molar value.

Tests used:
786-O cells [1] = experiment: Lysosomal sequestration of sunitinib by fluorescent microscopy; format: cell-based, human; design: Sequestration of sunitinib within lysosomes: dose or concentration left out as unconfirmed
786-O cells [2] = experiment: Dose-dependent anti-proliferative effects on 786-O cells (dose response); format: cell-based, human; conditions: for pEC50: Homo sapiens, 786-0, single drug dose response, read-out: ED50 (the source's name); for ED75 / ED90: single drug dose response
PNXC0010 RCC tumors = format: in vivo; conditions: PNX0010 subcutaneous xenografts, C.B17/lcrscid mice, 40 mg/kg each drug, orally 3 times/week
Experimental: PNX0010 subcutaneous xenografts were established in 6 week old male C.B17/lcrscid mice. The mice were treated orally 3 times/week with (i) 10% 2-hydroxypropyl-b-cyclodextrin in PBS (control); (ii) sunitinib (40 mg/kg); (iii) lonafarnib (40 mg/kg); or with sunitinib and lonafarnib combined (n=5 mice/group). Tumor volumes were calculated by the formula: (volume=0.52×(width)2×length).

PNX0010 RCC cells = experiment: Cell viability, […]-BLUE assay, PNX0010; format: cell-based, human; design: dose or concentration left out as unconfirmed; conditions: 72 hours
Experimental: (§1) Treatment with lonafarnib can reinstate sensitivity of RCC cells to TKIs. Pharmacological inhibition of FTase enhances the antitumor activity of sunitinib. Referring to FIG. 3, in Panel A, PNX0010 and 786-O RCC cells were treated with various combinations of lonafarnib ([…]), sunitinib ([…]), and pazopanib ([…]) for 72 hours. Cell viability was examined using Blue […]-BLUE® assay (PROMEGA®). In Panel B, 786-O and PNX0010 RCC cells were treated with lonafarnib ([…]) and/or sunitinib ([…]) for 24 hours. DNA fragmentation was examined by the APO-BRDU kit (The Phoenix Flow Systems) followed by flow cytometry analysis.

786-O RCC cells = experiment: Cell viability, […]-BLUE assay, 786-O; format: cell-based, human; design: dose or concentration left out as unconfirmed; conditions: 72 hours
Experimental: as §1

SMILES	Sequestration of sunitinib within lysosomes (786-O cells [1]; 60 minutes)	Total cellular accumulation of sunitinib (786-O cells [1]; effect of lonafarnib, data not shown)	pEC50 (786-O cells [2])	ED75 (786-O cells [2]) [µM]	ED90 (786-O cells [2]) [µM]	Growth of xenograft tumors (tumor volume) (PNXC0010 RCC tumors)	Effect on cell viability (PNX0010 RCC cells)	Effect on cell viability (786-O RCC cells)
NC(=O)N1CCC(CC(=O)N2CCC([C@H]3c4ncc(Br)cc4CCc4cc(Cl)cc(Br)c43)CC2)CC1 [Lonafarnib, lonafarnib]	significantly reduced	not affected	5.42	63.3	5672.0	moderate decrease	modest effect	modest effect
CCN(CC)CCNC(=O)c1c(C)[nH]c(/C=C2\C(=O)Nc3ccc(F)cc32)c1C [Sunitinib, sunitinib]	–	–	5.62	6.7	44.3	–	–	–
CNC(=O)c1ccccc1Sc1ccc2c(/C=C/c3ccccn3)n[nH]c2c1 [Axitinib, axitinib]	–	–	–	7.5	65.1	–	–	–
